# Measurements: patent US20240382629A1, “HETEROBIVALENT AND HOMOBIVALENT AGENTS TARGETING FIBROBLAST ACTIVATION PROTEIN ALPHA AND/OR PROSTATE-SPECIFIC MEMBRANE ANTIGEN” (The Johns Hopkins University, priority 2021, published 2024)
# Columns and labels:
# PSMA+ 786-O tumor = assay: PET imaging and biodistribution in PSMA+ 786-O ccRCC tumor-bearing mice; format: in vivo, mouse; details: 2 h
# Procedure: Experiment 4 consisted of preliminary imaging (7.4 MBq) (n=2) and biodistribution studies (0.74 MBq) at 2 h in male NSG healthy mice (n=3) and tumor-bearing human clear cell renal cell carcinoma (ccRCC) PSMA+786-O tumors (n=4).
# U87 tumor = assay: PET imaging and tissue biodistribution in U87 tumor-bearing mice; format: in vivo, mouse; details: for Biodistribution: Bladder / Biodistribution: Blood / Biodistribution: Bone / Biodistribution: Fat / Biodistribution: Heart / Biodistribution: Kidney / Biodistribution: Lac.gl / Biodistribution: Liver / Biodistribution: Lung / Biodistribution: Muscle / Biodistribution: Pancreas / Biodistribution: Sal.gl / Biodistribution: Sm.in / Biodistribution: Spleen / Biodistribution: Stomach / Biodistribution: Tumor: in %ID/g
# Procedure: Cell uptake assays, flow cytometry, and IHC were performed as described previously. Banerjee et al., 2019; Nimmagadda et al., 2018. PET imaging and biodistribution Sequential PET imaging and biodistribution studies were conducted to quantify and validate PET imaging data. Briefly, tumor-bearing mice were administrated approximately 7.4 MBq of radiotracer in 150 μL saline via tail-vein injection. They were randomized into the indicated groups of 3-4 mice before radiotracer injection.
# In Experiment 1, bilateral xenografts of U87 (right flank) and PSMA+ PC3 PIP (left flank) tumors were established in male NSG mice (n=3), which underwent imaging followed by biodistribution over 24 h. […] A biodistribution study was further conducted with U87 tumors at 2 h post-injection (n=3) to compare the tissue distribution properties of ^64Cu-FP-L1 and ^64Cu-FAPI-04.
# [1] = 1 h, NSG mice, U87 tumor, n=3-4
# [2] = 1 h block, 10 nmol FAPI-04, NSG mice, U87 tumor
# [3] = 2 h (n = 4), NSG mice, U87 tumor
smiles,measurement,setting,value
"N#C[C@@H]1CCCN1C(=O)CNC(=O)c1ccnc2ccc(OCCCNC(=O)CCc3cn(CCOCCOCCOCCC(=O)N[C@@H](CCCCNC(=O)CN4CCN(CC(=O)O)CCN(CC(=O)O)CC4)C(=O)NCCCCC(=O)N(CCCC[C@H](NC(=O)N[C@@H](CCC(=O)O)C(=O)O)C(=O)O)Cc4ccc(Br)cc4)nn3)cc12 [^64Cu-FP-L1, metal not drawn]","Tumor uptake, PSMA+ 786-O",PSMA+ 786-O tumor,11.97±1.63 % ID/g
same,Renal uptake in PSMA+ 786-O xenograft-bearing NSG mice vs healthy NSG mice,PSMA+ 786-O tumor; head-to-head biodistribution,high renal uptake compared to healthy mice
same,Biodistribution: Bladder,U87 tumor; [1],2.41 ± 0.62
same,Biodistribution: Blood,U87 tumor; [1],10.12 ± 3.23
same,Biodistribution: Bone,U87 tumor; [1],4.17 ± 0.13
same,Biodistribution: Fat,U87 tumor; [1],0.77 ± 0.12
same,Biodistribution: Heart,U87 tumor; [1],3.42 ± 2.73
same,Biodistribution: Kidney,U87 tumor; [1],21.58 ± 5.33
same,Biodistribution: Lac.gl,U87 tumor; [1],5.47 ± 4.13
same,Biodistribution: Liver,U87 tumor; [1],5.35 ± 0.43
same,Biodistribution: Lung,U87 tumor; [1],5.32 ± 1.42
same,Biodistribution: Muscle,U87 tumor; [1],2.29 ± 0.08
same,Biodistribution: Pancreas,U87 tumor; [1],7.17 ± 1.19
same,Biodistribution: Sal.gl,U87 tumor; [1],12.01 ± 3.62
same,Biodistribution: Sm.in,U87 tumor; [1],4.22 ± 1.78
same,Biodistribution: Spleen,U87 tumor; [1],2.20 ± 0.54
same,Biodistribution: Stomach,U87 tumor; [1],2.51 ± 0.25
same,Biodistribution: Tumor,U87 tumor; [1],12.04 ± 2.39
same,Biodistribution: Bladder,U87 tumor; [2],1.22 ± 0.15
same,Biodistribution: Blood,U87 tumor; [2],1.38 ± 0.19
same,Biodistribution: Bone,U87 tumor; [2],0.72 ± 0.08
same,Biodistribution: Fat,U87 tumor; [2],0.31 ± 0.04
same,Biodistribution: Heart,U87 tumor; [2],0.94 ± 0.35
same,Biodistribution: Kidney,U87 tumor; [2],6.09 ± 0.18
same,Biodistribution: Lac.gl,U87 tumor; [2],1.48 ± 0.45
same,Biodistribution: Liver,U87 tumor; [2],6.19 ± 1.06
same,Biodistribution: Lung,U87 tumor; [2],2.63 ± 0.27
same,Biodistribution: Muscle,U87 tumor; [2],0.38 ± 0.05
same,Biodistribution: Pancreas,U87 tumor; [2],1.01 ± 0.10
same,Biodistribution: Sal.gl,U87 tumor; [2],2.00 ± 0.19
same,Biodistribution: Sm.in,U87 tumor; [2],3.00 ± 0.22
same,Biodistribution: Spleen,U87 tumor; [2],1.55 ± 0.07
same,Biodistribution: Stomach,U87 tumor; [2],1.96 ± 0.07
same,Biodistribution: Tumor,U87 tumor; [2],4.37 ± 0.70
same,Biodistribution: Bladder,U87 tumor; [3],2.68 ± 0.83
same,Biodistribution: Blood,U87 tumor; [3],9.93 ± 2.13
same,Biodistribution: Bone,U87 tumor; [3],5.36 ± 1.89
same,Biodistribution: Fat,U87 tumor; [3],0.66 ± 0.52
same,Biodistribution: Heart,U87 tumor; [3],4.62 ± 0.68
same,Biodistribution: Kidney,U87 tumor; [3],26.85 ± 7.39
same,Biodistribution: Lac.gl,U87 tumor; [3],8.11 ± 1.24
same,Biodistribution: Liver,U87 tumor; [3],6.15 ± 0.65
same,Biodistribution: Lung,U87 tumor; [3],5.65 ± 1.54
same,Biodistribution: Muscle,U87 tumor; [3],2.10 ± 0.13
same,Biodistribution: Pancreas,U87 tumor; [3],5.98 ± 0.58
same,Biodistribution: Sal.gl,U87 tumor; [3],8.96 ± 1.47
same,Biodistribution: Sm.in,U87 tumor; [3],6.12 ± 1.91
same,Biodistribution: Spleen,U87 tumor; [3],2.68 ± 0.62
same,Biodistribution: Stomach,U87 tumor; [3],2.19 ± 0.33
same,Biodistribution: Tumor,U87 tumor; [3],14.65 ± 3.68
same,"Tumor uptake, FAP+ U87 tumor","U87 tumor; 2 h, bilateral U87 / PSMA+ PC3 PIP model",16.96±5.01 % ID/g
same,Uptake in U87 tumor with FAP blockade,"U87 tumor; 2 h, blocking with FAPI-04 (500 nmol/kg)",2.47±0.82 % ID/g
same,Biodistribution: Bladder,U87 tumor; 2 h Nude mice (n = 4),1.80 ± 0.24
same,Biodistribution: Blood,U87 tumor; 2 h Nude mice (n = 4),6.50 ± 1.05
same,Biodistribution: Bone,U87 tumor; 2 h Nude mice (n = 4),3.51 ± 0.45
same,Biodistribution: Fat,U87 tumor; 2 h Nude mice (n = 4),0.86 ± 0.03
same,Biodistribution: Heart,U87 tumor; 2 h Nude mice (n = 4),2.77 ± 0.25
same,Biodistribution: Kidney,U87 tumor; 2 h Nude mice (n = 4),11.66 ± 0.95
same,Biodistribution: Lac.gl,U87 tumor; 2 h Nude mice (n = 4),5.44 ± 0.78
same,Biodistribution: Liver,U87 tumor; 2 h Nude mice (n = 4),4.16 ± 0.66
same,Biodistribution: Lung,U87 tumor; 2 h Nude mice (n = 4),4.37 ± 0.48
same,Biodistribution: Muscle,U87 tumor; 2 h Nude mice (n = 4),1.80 ± 0.26
same,Biodistribution: Pancreas,U87 tumor; 2 h Nude mice (n = 4),5.04 ± 0.36
same,Biodistribution: Sal.gl,U87 tumor; 2 h Nude mice (n = 4),5.60 ± 0.94
same,Biodistribution: Sm.in,U87 tumor; 2 h Nude mice (n = 4),4.33 ± 1.13
same,Biodistribution: Spleen,U87 tumor; 2 h Nude mice (n = 4),1.88 ± 0.35
same,Biodistribution: Stomach,U87 tumor; 2 h Nude mice (n = 4),2.02 ± 0.22
same,Biodistribution: Tumor,U87 tumor; 2 h Nude mice (n = 4),7.25 ± 1.24
same,Biodistribution: Bladder,"U87 tumor; 4 h, NSG mice, U87 tumor",1.72 ± 0.33
same,Biodistribution: Blood,"U87 tumor; 4 h, NSG mice, U87 tumor",3.91 ± 0.73
same,Biodistribution: Bone,"U87 tumor; 4 h, NSG mice, U87 tumor",2.39 ± 0.37
same,Biodistribution: Fat,"U87 tumor; 4 h, NSG mice, U87 tumor",0.53 ± 0.10
